How the values were obtained:
Parameters in all cases: key: 0: normal development; 1: Less damaged; 2: Slightly damaged; 3: Moderately damaged; 4: Severely damaged; 5: All killed
bulrush = experiment: Herbicidal test for paddy field; format: in vivo, Scrips juncoides; details: paddy field pot, 500 g/ha dropwise at 1.5 leaf stage of barnyardgrass, 3 weeks, rank vs non-treated
Summary of the method: (§1)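 Scores run on a six-point scale from 0 for normal development to 5 for all plants killed, judged against non-treated pots. Plants were grown in Ube soil under 3 cm of standing water and treated by pipet with 500 g/ha of the compound once barnyardgrass had 1.5 leaves. Assessment followed 3 weeks in a glasshouse averaging 25° C.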

flat sedge = experiment: Herbicidal test for paddy field; format: in vivo, Cyperus serotinus; details: paddy field pot, 500 g/ha dropwise at 1.5 leaf stage of barnyardgrass, 3 weeks, rank vs non-treated
Summary of the method: as §1

green foxtail [1] = experiment: Soil treatment test for upland field; format: in vivo, Setaria viridis; details: 500 g/ha, glass house 25° C., 3 weeks
Summary of the method: (§2)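 Visual 0–5 damage rating recorded 3 weeks after a pre-emergence soil spray of 500 g/ha on seeded Ube alluvial soil, with plants held in a glasshouse near 25° C.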

common lambsquartes = experiment: Soil treatment test for upland field; format: in vivo, Chenopodium album; details: 500 g/ha, glass house 25° C., 3 weeks
Summary of the method: as §2

velvetleaf [2] = experiment: Soil treatment test for upland field; format: in vivo, Abutilon theophrasti; details: 500 g/ha, glass house 25° C., 3 weeks
Summary of the method: as §2

corn = experiment: Foliar spread test for upland field; format: in vivo; details: foliar spray 500 ppm, 3 weeks, rank vs non-treated
Summary of the method: (§3)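 Two-week-old glasshouse seedlings on volcanic ash soil were treated by foliar spray at 500 ppm, with 0.5% surfactant in the diluent. Effects were graded visually after three weeks, from 0 for no injury to 5 for complete kill.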

cotton = experiment: Foliar spread test for upland field; format: in vivo; details: foliar spray 500 ppm, 3 weeks, rank vs non-treated
Summary of the method: as §3

solgum = experiment: Foliar spread test for upland field; format: in vivo; details: foliar spray 500 ppm, 3 weeks, rank vs non-treated
Summary of the method: as §3

soybean = experiment: Foliar spread test for upland field; format: in vivo; details: foliar spray 500 ppm, 3 weeks, rank vs non-treated
Summary of the method: as §3

sugar beat = experiment: Foliar spread test for upland field; format: in vivo; details: foliar spray 500 ppm, 3 weeks, rank vs non-treated
Summary of the method: as §3

wheat = experiment: Foliar spread test for upland field; format: in vivo; details: foliar spray 500 ppm, 3 weeks, rank vs non-treated
Summary of the method: as §3

Large crabgrass = experiment: Foliar spread test for upland field; format: in vivo, Digitaria adscendens; details: foliar spray 500 ppm, 3 weeks, rank vs non-treated
Summary of the method: (§4)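 Scoring used a 0–5 scale, where 0 meant normal development and 5 meant all plants killed, assessed 3 weeks after treatment. Plants had been grown about 2 weeks from seed in volcanic ash soil before a uniform spray at 500 ppm containing 0.5% surfactant.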

barnyardgrass = experiment: Foliar spread test for upland field; format: in vivo, Echinochloa crusgalli; details: foliar spray 500 ppm, 3 weeks, rank vs non-treated
Summary of the method: as §4

green foxtail [3] = experiment: Foliar spread test for upland field; format: in vivo, Setaria viridis; details: foliar spray 500 ppm, 3 weeks, rank vs non-treated
Summary of the method: as §4

velvetleaf [4] = experiment: Foliar spread test for upland field; format: in vivo, Abutilon theophrasti; details: foliar spray 500 ppm, 3 weeks, rank vs non-treated
Summary of the method: as §4

| Structure (SMILES) | Effect Bulrush (bulrush) | Effect Flat sedge (flat sedge) | Effects Green foxtail (green foxtail [1]) | Effects Common lambsquarters (common lambsquartes) | Effects Velvetleaf (velvetleaf [2]) | Effects Corn (corn) | Effects Cotton (cotton) | Effects Solgum (solgum) | Effects Soybean (soybean) | Effects Sugar beat (sugar beat) | Effects Wheat (wheat) | Effects Large crabgrass (Large crabgrass) | Effects Barnyardgrass (barnyardgrass) | Effects Green foxtail (green foxtail [3]) | Effects Velvetleaf (velvetleaf [4]) |
| --- | --- | --- | --- | --- | --- | --- | --- | --- | --- | --- | --- | --- | --- | --- | --- |
| CCCC(Oc1cccc(C(F)(F)F)c1)c1nc2cc(C#N)ccc2o1 (stereo not drawn) [Compound 192] | 4 | 4 | 5 | 5 | 5 | 2 | 3 | 2 | 3 | 4 | 2 | 3 | 2 | 5 | 3 |
| CCC(Oc1ccc(F)c(C(F)(F)F)c1)c1nc2cc(F)c(F)cc2o1 (stereo not drawn) [Compound 284] | 4 | 4 | 5 | 4 | 5 | 3 | 3 | 3 | 5 | 4 | 2 | 4 | 1 | 4 | 2 |
| CCC(Oc1ccc(F)c(C(F)(F)F)c1)c1nc2cc(Cl)c(C)cc2o1 (stereo not drawn) [Compound 340] | 4 | 2 | 5 | 5 | 5 | 2 | 3 | 2 | 3 | 3 | 2 | 4 | 2 | 4 | 4 |
| CCC(Oc1cccc(OC(F)(F)F)c1)c1nc2cc([N+](=O)[O-])ccc2o1 (stereo not drawn) [Compound 450] | 4 | 3 | 5 | 4 | 5 | 3 | 5 | 3 | 4 | 5 | 2 | 4 | 3 | 3 | 3 |

Reference: patent US6706664B1, “Benzoxazole compounds, process for the preparation thereof and herbicides” (UBE Industries, Ltd., priority 1999, dated 2004)
